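How tested: cells in 96-well plates exposed to compound for 48 hours at five concentrations. Here, GI50 denotes the concentration required for 50% inhibition of growth. TGI is the concentration that stops growth completely.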 Where a SMILES comes first, the peptide text is derived from it. The star is where a group is joined. Palmitoyl = CCCCCCCCCCCCCCCC(=O)*
Key:
Assay in all cases: NCI tumour cell line growth inhibition, 48 h
[1] = tested on: BT-549 breast
[2] = tested on: HS 578T breast
[3] = tested on: MDA-MB-231 breast
[4] = tested on: MDA-MB-435
[5] = tested on: MDA-N
[6] = tested on: T-47D breast
[7] = tested on: DLD-1 colon
[8] = tested on: DMS 273 small cell lung
[9] = tested on: KM20L2 colon
[10] = tested on: NCI/ADR-RES ovarian
[11] = tested on: XF 498 CNS
[12] = tested on: 786-0 renal
[13] = tested on: PC-3 prostate
[14] = tested on: LXFL 529 NSCLC

| SMILES | TGI [1] | TGI [2] | TGI [3] | TGI [4] | TGI [5] | TGI [6] | TGI [7] | TGI [8] | TGI [9] | TGI [10] | TGI [11] | GI50 [2] | GI50 [3] | GI50 [4] | GI50 [6] | TGI [12] | TGI [13] | GI50 [1] | GI50 [10] | TGI [14] |
| --- | --- | --- | --- | --- | --- | --- | --- | --- | --- | --- | --- | --- | --- | --- | --- | --- | --- | --- | --- | --- |
| Cc1c(-c2ccccc2)[nH]c2cc(Cl)ccc2c1=O | > 100 µM | 65.6 µM | > 100 µM | > 100 µM | > 100 µM | > 100 µM | – | – | – | – | – | – | – | – | – | – | – | – | – | – |
| Cn1c(-c2ccccc2)cc(-c2cccs2)c1-c1cccs1 | – | – | – | – | – | – | > 100 µM | > 100 µM | > 100 µM | > 100 µM | > 100 µM | – | – | – | – | – | – | – | – | – |
| c1ccc(-c2nc(N3CCNCC3)c3oc(-c4ccccc4)nc3n2)cc1 | – | 4.07 µM | 3.28 µM | 3.12 µM | – | 4.95 µM | – | – | – | – | – | 1.88 µM | 1.76 µM | 1.65 µM | 2.1 µM | – | – | – | – | – |
| CCCC1CCC(=C2C(=O)CCC2=O)O1 (stereo not drawn) | > 100 µM | > 100 µM | > 100 µM | > 100 µM | > 100 µM | > 100 µM | – | – | – | > 100 µM | – | – | – | – | – | > 100 µM | > 100 µM | – | – | – |
| C/C(=N/N=C(\[O-])c1ccncc1)C(F)(F)F.C/C(=N\N=C(/[O-])c1ccncc1)C(F)(F)F.[Ni+2] | > 1 µM | – | – | – | – | > 1 µM | – | – | – | > 1 µM | – | – | – | – | > 1 µM | – | – | > 1 µM | > 1 µM | – |
| Nc1nc(Nc2ccccc2)c2[nH]cnc2n1 | – | – | > 100 µM | > 100 µM | > 100 µM | > 100 µM | – | – | – | > 100 µM | – | – | – | – | – | > 100 µM | > 100 µM | – | – | – |
| CON(C)c1nc(N(C)OC)nc(N(C)OC)n1 | – | > 10 µM | > 10 µM | > 10 µM | > 10 µM | > 10 µM | – | – | – | > 10 µM | – | – | – | – | – | – | > 10 µM | – | – | – |
| COc1cc(C(C)O)c[n+](Cc2ccccc2)c1 (stereo not drawn) | – | – | – | – | – | – | > 100 µM | > 100 µM | > 100 µM | – | > 31.6 µM | – | – | – | – | > 100 µM | – | – | – | > 100 µM |
| CCOC(=O)c1c(C)n(-c2ccc(Cl)cc2)c2c1cc(O)c1[nH]c3c(c12)CCCC3 | > 100 µM | 72.4 µM | > 100 µM | > 100 µM | > 100 µM | > 100 µM | – | – | – | > 100 µM | – | – | – | – | – | > 100 µM | > 100 µM | – | – | – |
| Nc1[nH]c(=O)nc2c1cnn2C1CCCCO1 (stereo not drawn) | – | – | – | – | – | – | > 100 µM | > 100 µM | > 100 µM | – | > 100 µM | – | – | – | – | – | – | – | – | > 100 µM |
| CCCCCCCCCCCCCCCC(=O)N1CCCC1C(=O)NCC(=O)NC(Cc1ccccc1)C(=O)NC(C)C(=O)NC(CO)C(=O)NC(Cc1ccc(O)cc1)C(=O)NC(CCCCN)C(=O)NC(CC(C)C)C(=O)NC(CCCN=C(N)N)C(=O)N1CCCC1C(=O)NCC(N)=O (stereo not drawn) (Palmitoyl-PGFASYKLRPG-NH2; configuration not given here) | 45.3 µM | > 100 µM | 26.5 µM | 54.5 µM | – | 39.6 µM | – | – | – | 35 µM | – | 39.7 µM | 12.5 µM | 14 µM | 17.4 µM | – | – | 21.9 µM | 16.2 µM | – |
| O[C@@]12Cc3c([nH]c4ccccc34)[C@@H]3Oc4cccc5c4[C@@]31CCN(CC1CC1)[C@@H]2C5 | 35.3 µM | – | 40.4 µM | 29.2 µM | 33.9 µM | – | – | – | – | 51.2 µM | – | – | – | – | – | – | 30.7 µM | – | – | – |
| CC(N)Cc1ccc(Cl)c(Cl)c1 (stereo not drawn) | – | – | – | – | – | – | > 100 µM | > 71.9 µM | 53.7 µM | – | 23.7 µM | – | – | – | – | > 100 µM | – | – | – | 34.9 µM |
| CN1C(c2ccccc2)CC(=O)C(N)C1c1ccccc1 (stereo not drawn) | – | – | – | – | – | – | > 100 µM | > 61.7 µM | > 90.6 µM | – | 28.1 µM | – | – | – | – | 97.7 µM | – | – | – | 37.5 µM |
| CC(C)C(C(=O)O)N1C(=O)c2ccccc2C1=O (stereo not drawn) | > 100 µM | > 100 µM | > 100 µM | > 100 µM | > 100 µM | > 100 µM | – | – | – | > 100 µM | – | – | – | – | – | > 100 µM | > 100 µM | – | – | – |
| Nc1nc(O)c2ncn([C@H]3CC[C@@H](CO)O3)c2n1 | > 100 µM | > 100 µM | – | > 100 µM | > 100 µM | > 100 µM | – | – | – | > 100 µM | – | – | – | – | – | – | > 100 µM | – | – | – |
| C[N+](C)(C)c1ncnc2c1ncn2C1CC(O)C(CO)O1 (stereo not drawn) | > 100 µM | > 100 µM | > 100 µM | > 100 µM | > 100 µM | > 100 µM | – | – | – | > 100 µM | – | – | – | – | – | > 100 µM | > 100 µM | – | – | – |
